Broadly, the EC50 is the concentration giving half of the maximal effect.

The subject of the first experiment is HBV rcDNA. Description: HepDE19 assay with bDNA quantitation of HBV rcDNA. As to conditions: HepDE19 assay, inhibition of formation of rcDNA; read-out: DE-19bDNA EC50. The experiment is classed as cell-based, hepatitis B virus. As to the method: HepDE19 Assay with bDNA Quantitation of HBV rcDNA:
HepDE19 cell culture system is a HepG2 (human hepatocarcinoma) derived cell line that supports HBV DNA replication and cccDNA formation in a tetracycline (Tet)-regulated manner and produces HBV rcDNA and a detectable reporter molecule dependent on the production and maintenance of cccDNA (Guo, et al., 2007, J. Virol. 81:12472-12484).
HepDE19 (50,000 cells/well) were plated in 96-well collagen-coated tissue-culture treated microtiter plates in DMEM/F12 medium supplemented with 10% fetal bovine serum, 1% penicillin-streptomycin and 1 μg/mL tetracycline and incubated in a humidified incubator at 37° C. and 5% CO2 overnight. Next day, the cells were switched to fresh medium without tetracycline and incubated for 4 hours at 37° C. and 5% CO2. The cells were treated with fresh Tet-free medium with compounds at concentrations starting at 25 μM and a serial, […], 8-point, titration series in duplicate. The final DMSO concentration in the assay was 0.5%. The plates were incubated for 7 days in a humidified incubator at 37° C. and 5% CO2. Following a 7 day-incubation, the level of rcDNA present in the inhibitor-treated wells was measured using a Quantigene 2.0 bDNA assay kit (Affymetrix, Santa Clara, Calif.) with HBV specific custom probe set and manufacturers instructions. Concurrently, the effect of compounds on cell viability was assessed using replicate plates, plated at a density of 5,000 cells/well and incubated for 4 days, to determine the ATP content as a measure of cell viability using the cell-titer glo reagent (CTG; Promega Corporation, Madison, Wis.) as per manufacturer's instructions. The plates were read using a Victor luminescence plate reader (PerkinElmer Model 1420 Multilabel counter) and the relative luminescence units (RLU) data generated from each well was calculated as % inhibition of the untreated control wells and analyzed using XL-Fit module in Microsoft Excel to determine EC50 and EC90 (bDNA) and CC50 (CTG) values using a 4-parameter curve fitting algorithm.
In the case of `COc1ncc(C(C)N(C(=O)Nc2ccc(F)c(Cl)c2)C2CC2)c2ccccc12` (single isomer, unassigned) [Compound 56, 3-(3-Chloro-4-fluorophenyl)-1-cyclopropyl-1-(1-(1-methoxyisoquinolin-4-yl)ethyl)urea], the EC50 amounted to 13 µM.
The same measure, in the same setting: the same measure for `COc1ncc(C(C)N(C(=O)Nc2ccc(F)c(Cl)c2)C2CC2)c2ccccc12` (single isomer, unassigned) [Compound 57, 3-(3-Chloro-4-fluorophenyl)-1-cyclopropyl-1-(1-(1-methoxyisoquinolin-4-yl)ethyl)urea]: 0.24 µM; for `CCN(C(=O)Nc1ccc(F)c(Cl)c1)C(c1cnc(OC)c2ccccc12)C1CC1` (single isomer, unassigned) [Compound 58, 3-(3-Chloro-4-fluorophenyl)-1-(cyclopropyl(1-methoxyisoquinolin-4-yl)methyl)-1-ethylurea]: 3.5 µM; for `CCN(C(=O)Nc1ccc(F)c(Cl)c1)C(c1ccccc1)c1cnc(OC)c2ccccc12` (single isomer, unassigned) [Compound 59, 3-(3-Chloro-4-fluorophenyl)-1-ethyl-1-((1-methoxyisoquinolin-4-yl)(phenyl)methyl)urea]: 22 µM.
The same measure, in the same setting: the same measure for `CCN(C(=O)Nc1ccc(F)c(Cl)c1)C(c1ccccc1)c1cnc(OC)c2ccccc12` (single isomer, unassigned) [Compound 60, 3-(3-Chloro-4-fluorophenyl)-1-ethyl-1-((1-methoxyisoquinolin-4-yl)(phenyl)methyl)urea]: 8.8 µM.
Same read-out and setting: the same measure for `CCCCN(C(=O)Nc1ccc(F)c(Cl)c1)C(C)c1cnc(OC)c2ccccc12` (single isomer, unassigned) [Compound 61, 1-Butyl-3-(3-chloro-4-fluorophenyl)-1-(1-(1-methoxyisoquinolin-4-yl)ethyl)urea]: 0.08 µM; for `CCCCN(C(=O)Nc1ccc(F)c(Cl)c1)C(C)c1cnc(OC)c2ccccc12` (single isomer, unassigned) [Compound 62, 1-Butyl-3-(3-chloro-4-fluorophenyl)-1-(1-(1-methoxyisoquinolin-4-yl)ethyl)urea]: 7.1 µM; for `COc1ncc(C(C)N(CC2CC2)C(=O)Nc2ccc(F)c(Cl)c2)c2ccccc12` (single isomer, unassigned) [Compound 63, 3-(3-Chloro-4-fluorophenyl)-1-(cyclopropylmethyl)-1-(1-(1-methoxyisoquinolin-4-yl)ethyl)urea]: 5.8 µM.
For the compound `COc1ncc(C(C)N(CC2CC2)C(=O)Nc2ccc(F)c(Cl)c2)c2ccccc12` (single isomer, unassigned) [Compound 64, 3-(3-Chloro-4-fluorophenyl)-1-(cyclopropylmethyl)-1-(1-(1-methoxyisoquinolin-4-yl)ethyl)urea], the EC50 turned out to be 0.12 µM.
Still for that read-out and setting: the same measure for `CC(c1c[nH]c(=O)c2ccccc12)N(C(=O)Nc1ccc(F)c(Cl)c1)C1CC1` (single isomer, unassigned) [Compound 67, 3-(3-Chloro-4-fluorophenyl)-1-cyclopropyl-1-(1-(1-oxo-1,2-dihydroisoquinolin-4-yl)ethyl)urea]: 7.9 µM; for `CC(c1c[nH]c(=O)c2ccccc12)N(C(=O)Nc1ccc(F)c(Cl)c1)C1CC1` (single isomer, unassigned) [Compound 68, 3-(3-Chloro-4-fluorophenyl)-1-cyclopropyl-1-(1-(1-oxo-1,2-dihydroisoquinolin-4-yl)ethyl)urea]: 0.06 µM.
Same read-out and setting: the same measure for `COCCN(C(=O)Nc1ccc(F)c(Cl)c1)C(C)c1cnc(OC)c2ccccc12` (single isomer, unassigned) [Compound 72, 3-(3-Chloro-4-fluorophenyl)-1-(2-methoxyethyl)-1-(1-(1-methoxyisoquinolin-4-yl)ethyl)urea]: 21 µM; for `COCCN(C(=O)Nc1ccc(F)c(Cl)c1)C(C)c1cnc(OC)c2ccccc12` (single isomer, unassigned) [Compound 73, 3-(3-Chloro-4-fluorophenyl)-1-(2-methoxyethyl)-1-(1-(1-methoxyisoquinolin-4-yl)ethyl)urea]: 0.78 µM.
On the same count and under the same terms, the same measure for `CCN(C(=O)Nc1ccc(F)c(Cl)c1)C(c1c[nH]c(=O)c2ccccc12)C(F)(F)F` (single isomer, unassigned) [Compound 74, 3-(3-chloro-4-fluorophenyl)-1-ethyl-1-(2,2,2-trifluoro-1-(1-oxo-1,2-dihydroisoquinolin-4-yl)ethyl)urea]: 15 µM; for `CCN(C(=O)Nc1ccc(F)c(Cl)c1)C(c1c[nH]c(=O)c2ccccc12)C(F)(F)F` (single isomer, unassigned) [Compound 76, 3-(3-Chloro-4-fluorophenyl)-1-ethyl-1-(2,2,2-trifluoro-1-(1-oxo-1,2-dihydroisoquinolin-4-yl)ethyl)urea]: 1.4 µM; for `COc1ncc(C(CCO)NC(=O)Nc2ccc(F)c(Cl)c2)c2ccccc12` (single isomer, unassigned) [Compound 77, 1-(3-Chloro-4-fluorophenyl)-3-(3-hydroxy-1-(1-methoxyisoquinolin-4-yl)propyl)urea]: 7.4 µM.
Regarding `COc1ncc(C(CCO)NC(=O)Nc2ccc(F)c(Cl)c2)c2ccccc12` (single isomer, unassigned) [Compound 78, 1-(3-Chloro-4-fluorophenyl)-3-(3-hydroxy-1-(1-methoxyisoquinolin-4-yl)propyl)urea], the EC50 was determined as 24 µM.
Still for that read-out and setting: the same measure for `COCCCN(C(=O)Nc1ccc(F)c(Cl)c1)C(C)c1cnc(OC)c2ccccc12` (single isomer, unassigned) [Compound 81, 3-(3-Chloro-4-fluorophenyl)-1-(1-(1-methoxyisoquinolin-4-yl)ethyl)-1-(3-methoxypropyl)urea]: 8.6 µM; for `COCCCN(C(=O)Nc1ccc(F)c(Cl)c1)C(C)c1cnc(OC)c2ccccc12` (single isomer, unassigned) [Compound 82, 3-(3-Chloro-4-fluorophenyl)-1-(1-(1-methoxyisoquinolin-4-yl)ethyl)-1-(3-methoxypropyl)urea]: 0.32 µM.
On the same count and under the same terms, the same measure for `CC(c1c[nH]c(=O)c2ccccc12)N(CC1CC1)C(=O)Nc1ccc(F)c(Cl)c1` (single isomer, unassigned) [Compound 85, 3-(3-Chloro-4-fluorophenyl)-1-(cyclopropylmethyl)-1-(1-(1-oxo-1,2-dihydroisoquinolin-4-yl)ethyl)urea]: 0.46 µM.

The experiment is the same for the next values; noted with them: Hepatitis B virus, HepDE19, HepDE19 assay, inhibition of formation of rcDNA; read-out: DE-19bDNA EC50.
For `CCN(C(=O)Nc1ccc(F)c(Cl)c1)C(c1cnc(OC)c2ccccc12)C(F)(F)F` (single isomer, unassigned) [Compound 75, 3-(3-Chloro-4-fluorophenyl)-1-ethyl-1-(2,2,2-trifluoro-1-(1-methoxyisoquinolin-4-yl)ethyl)urea], the EC50 was found to be 4.5 µM.

The same experiment, now with this note: Hepatitis B virus, HepDE19, read-out: DE-19bDNA EC50 (μM), HepDE19 assay, inhibition of formation of rcDNA.
Turning to `CCN(C(=O)Nc1ccc(F)c(Cl)c1)C(c1ccccc1)c1c[nH]c(=O)c2ccccc12` (single isomer, unassigned) [Compound 69, 3-(3-Chloro-4-fluorophenyl)-1-ethyl-1-((1-oxo-1,2-dihydroisoquinolin-4-yl)(phenyl)methyl)urea], the EC50 amounted to 9.7 µM.

The same experiment, now with this note: read-out: DE-19bDNA EC50; HepDE19 assay, inhibition of formation of rcDNA.
Turning to `COCCN(C(=O)Nc1ccc(F)c(Cl)c1)C(C)c1c[nH]c(=O)c2ccccc12` (single isomer, unassigned) [Compound 65, 3-(3-Chloro-4-fluorophenyl)-1-(2-methoxyethyl)-1-(1-(1-oxo-1,2-dihydroisoquinolin-4-yl)ethyl)urea], the EC50 stood at 10 µM.
Regarding `COCCN(C(=O)Nc1ccc(F)c(Cl)c1)C(C)c1c[nH]c(=O)c2ccccc12` (single isomer, unassigned) [Compound 66, 3-(3-Chloro-4-fluorophenyl)-1-(2-methoxyethyl)-1-(1-(1-oxo-1,2-dihydroisoquinolin-4-yl)ethyl)urea], the EC50 came to 0.09 µM.
On the same count and under the same terms, the same measure for `CCN(C(=O)Nc1ccc(F)c(Cl)c1)C(c1ccccc1)c1c[nH]c(=O)c2ccccc12` (single isomer, unassigned) [Compound 70, 3-(3-Chloro-4-fluorophenyl)-1-ethyl-1-((1-oxo-1,2-dihydroisoquinolin-4-yl)(phenyl)methyl)urea]: 16 µM; for `CCCCN(C(=O)Nc1ccc(F)c(Cl)c1)C(C)c1c[nH]c(=O)c2ccccc12` (single isomer, unassigned) [Compound 83, 1-Butyl-3-(3-chloro-4-fluorophenyl)-1-(1-(1-oxo-1,2-dihydroisoquinolin-4-yl)ethyl)urea]: 0.86 µM.
Consider `CCCCN(C(=O)Nc1ccc(F)c(Cl)c1)C(C)c1c[nH]c(=O)c2ccccc12` (single isomer, unassigned) [Compound 84, 1-Butyl-3-(3-chloro-4-fluorophenyl)-1-(1-(1-oxo-1,2-dihydroisoquinolin-4-yl)ethyl)urea], for which the EC50 was 0.01 µM.

These data come from patent publication US20230045421A1 (priority 2018, published 2023).
